One data set deals with T1, human PDE10A full length (Homo sapiens, UniProt Q9Y233).
T1 construct: purchased Enzo Life Science, Lausen, Switzerland SE-534
The experiment in a line: PDE10A Scintillation Proximity Assay (SPA), human PDE10A full length assay. In kind it is biochemical. Particulars: 50 nM cGMP + 50 nM [3H]-cGMP, 20 minutes at room temperature, read-out: PDE10A inhibition IC50. On the procedure: The following test was carried out in order to determine the activity of the compounds of the present invention. PDE10 activity of the compounds of the present invention was determined using a Scintillation Proximity Assay (SPA)-based method similar to the one previously described (Fawcett, L. et al., Proc Natl Acad Sci USA (2000) 97(7):3702-3707).
The human PDE10A full length assay was performed in 96-well micro titer plates. The reaction mixture of 50 μl contained 20 mM HEPES pH=7.5/10 mM MgCl2/0.05 mg/ml BSA (Sigma cat. #A-7906), 50 nM cGMP (Sigma, cat. #G6129) and 50 nM [^3H]-cGMP (GE Healthcare, cat. #TRK392 S.A. 13.2Ci/mmol), 3.75 ng/well PDE10A enzyme (Enzo Life Science, Lausen, Switzerland cat #SE-534) with or without a specific test compound. A range of concentrations of the potential inhibitor was used to generate data for calculating the concentration of inhibitor resulting in 50% of the effect (e.g. IC50, the concentration of the competitor inhibiting PDE10A activity by 50%). Non-specific activity was tested without the enzyme. The reaction was initiated by the addition of the substrate solution (cGMP and [^3H]-cGMP) and allowed to progress for 20 minutes at room temperature. The reaction was terminated by adding 25 μl of YSi-SPA scintillation beads (GE Healthcare, cat. #RPNQ0150) in 18 mM zinc sulphate solution (stop reagent). After 1 h under shaking, the plate was centrifuged one minute at 170 g to allow beads to settle. Afterwards, radioactive counts were measured on a Perkin Elmer TopCount Scintillation plate reader.
A general note: Scintillation proximity formats need no separation of bound from free tracer.

For eleven compounds, IC50 and melting point results are on record in patent US8349824B2, “Triazolopyridine compounds” (Hoffmann-La Roche Inc., priority 2010, dated 2013).

Structures are written as SMILES. Some results are limits rather than exact numbers.

T1 sequence (Q9Y233 1-779 isoform Q9Y233-1): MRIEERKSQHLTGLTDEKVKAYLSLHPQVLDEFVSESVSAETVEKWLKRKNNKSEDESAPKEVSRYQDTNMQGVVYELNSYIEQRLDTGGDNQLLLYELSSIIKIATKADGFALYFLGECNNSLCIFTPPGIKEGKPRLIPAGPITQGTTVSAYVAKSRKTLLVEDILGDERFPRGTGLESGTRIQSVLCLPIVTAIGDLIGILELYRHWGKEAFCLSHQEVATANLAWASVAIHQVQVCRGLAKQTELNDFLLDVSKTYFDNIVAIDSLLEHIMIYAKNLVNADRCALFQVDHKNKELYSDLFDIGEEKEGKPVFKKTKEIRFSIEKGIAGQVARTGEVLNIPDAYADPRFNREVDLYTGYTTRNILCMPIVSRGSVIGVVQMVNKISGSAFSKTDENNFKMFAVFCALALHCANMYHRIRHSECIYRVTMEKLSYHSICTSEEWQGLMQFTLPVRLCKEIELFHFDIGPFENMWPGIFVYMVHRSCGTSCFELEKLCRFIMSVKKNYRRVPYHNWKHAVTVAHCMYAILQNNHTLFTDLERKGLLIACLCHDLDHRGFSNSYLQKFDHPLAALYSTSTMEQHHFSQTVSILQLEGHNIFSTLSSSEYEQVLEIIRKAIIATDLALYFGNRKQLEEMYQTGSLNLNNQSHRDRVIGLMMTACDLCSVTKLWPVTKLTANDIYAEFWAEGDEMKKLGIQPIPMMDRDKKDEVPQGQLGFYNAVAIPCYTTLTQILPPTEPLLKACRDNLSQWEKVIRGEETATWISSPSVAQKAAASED

One may read the IC50 as the concentration that gives 50% inhibition. Broadly, the melting point is the temperature of the solid-liquid transition. `Cn1ncc(C(=O)N2C[C@H]3C[C@@H]2CO3)c1C(=O)Nc1ccn2nc(-c3cccnc3)nc2c1` (stereo in doubt) [Example 57, 2-Methyl-4-((1R,4R)-2-oxa-5-aza-bicyclo[2.2.1]heptane-5-carbonyl)-2H-pyrazole-3-carboxylic acid (2-pyridin-3-yl-[1,2,4]triazolo[1,5-a]pyridin-7-yl)-amide] showed a melting point of 272 to 273 °C. Also, at human PDE10A full length, the IC50 amounted to 51.9 nM.

The compound `COC(=O)c1cnn(C)c1C(=O)Nc1ccn2nc(-c3ccccc3)nc2c1` [Example 1, methyl 1-methyl-5-(2-phenyl-[1,2,4]triazolo[1,5-a]pyridin-7-ylcarbamoyl)-1H-pyrazole-4-carboxylate] yielded a melting point of 243 to 247 °C. Also, the half-maximal inhibitory concentration (IC50) at human PDE10A full length amounted to 14.6 nM.

On to `Cn1ncc(C(=O)O)c1C(=O)Nc1ccn2nc(-c3ccccc3)nc2c1` [Example 2, 1-Methyl-5-(2-phenyl-[1,2,4]triazolo[1,5-a]pyridin-7-ylcarbamoyl)-1H-pyrazole-4-carboxylic acid], for which the melting point is more than 300 °C. Further, at human PDE10A full length, the concentration for half-maximal inhibition (IC50) turned out to be 24.9 nM.

The compound `Cn1ncc(C(=O)N2CCC2)c1C(=O)Nc1ccn2nc(-c3ccccc3)nc2c1` [Example 3, 4-(Azetidine-1-carbonyl)-2-methyl-2H-pyrazole-3-carboxylic acid (2-phenyl-[1,2,4]triazolo[1,5-a]pyridin-7-yl)-amide] gave a melting point of 243 to 245 °C. The IC50 at human PDE10A full length was 0.71 nM.

With `CN(c1nc2cc(NC(=O)c3c(C(=O)N4CCC4)cnn3C)ccn2n1)C1CC1` [Example 127, 4-(Azetidine-1-carbonyl)-2-methyl-2H-pyrazole-3-carboxylic acid [2-(cyclopropyl-methyl-amino)-[1,2,4]triazolo[1,5-a]pyridin-7-yl]-amide], the IC50 at human PDE10A full length was determined as 0.73 nM.

Regarding `CN(c1nc2cc(NC(=O)c3c(C(=O)N4CCOCC4)cnn3C)ccn2n1)C1CC1` [Example 128, 2-Methyl-4-(morpholine-4-carbonyl)-2H-pyrazole-3-carboxylic acid [2-(cyclopropyl-methyl-amino)-[1,2,4]triazolo[1,5-a]pyridine-7-yl]-amide], the IC50 at human PDE10A full length was found to be 3.37 nM.

For the compound `Cn1ncc(C(=O)N2CCN3CCC2C3)c1C(=O)Nc1ccn2nc(-c3ccccc3)nc2c1` (stereo not drawn) [Example 129, 4-(1,4-Diaza-bicyclo[3.2.1]octane-4-carbonyl)-2-methyl-2H-pyrazole-3-carboxylic acid (2-phenyl-[1,2,4]triazolo[1,5-a]pyridin-7-yl)-amide], the IC50 at human PDE10A full length was found to be 1.1 nM.

As for `Cn1ncc(C(=O)N2CCC2)c1C(=O)Nc1ccn2nc(-c3ccccc3OCCF)nc2c1` [Example 130, 4-(Azetidine-1-carbonyl)-2-methyl-2H-pyrazole-3-carboxylic acid {2-[2-(2-fluoro-ethoxy)-phenyl]-[1,2,4]triazolo[1,5-a]pyridin-7-yl}-amide], at human PDE10A full length, the IC50 worked out at 0.34 nM.

As for `Cn1ncc(C(=O)N2CCOCC2)c1C(=O)Nc1ccn2nc(-c3ccccc3OCCF)nc2c1` [Example 131, 2-Methyl-4-(morpholine-4-carbonyl)-2H-pyrazole-3-carboxylic acid {2-[2-(2-fluoro-ethoxy)-phenyl]-[1,2,4]triazolo[1,5-a]pyridin-7-yl}-amide], the IC50 on human PDE10A full length worked out at 0.9 nM.

Regarding `COCCN(C)C(=O)c1cnn(C)c1C(=O)Nc1ccn2nc(-c3ccccc3OCCF)nc2c1` [Example 132, 2-Methyl-2H-pyrazole-3,4-dicarboxylic acid 3-({2-[2-(2-fluoro-ethoxy)-phenyl]-[1,2,4]triazolo[1,5-a]pyridin-7-yl}-amide) 4-[(2-methoxy-ethyl)-methyl-amide]], the IC50 at human PDE10A full length stood at 1.02 nM.

On to `Cn1ncc(C(=O)N2CCOCC2)c1C(=O)Nc1ccn2nc(N3CCCC3=O)nc2c1` [Example 133, Methyl-4-(morpholine-4-carbonyl)-N-(2-(2-oxopyrrolidin-1-yl)-[1,2,4]triazolo[1,5-a]pyridin-7-yl)-1H-pyrazole-5-carboxamide], for which the IC50 on human PDE10A full length was determined as 16.1 nM.
